From patent US10160762B2, “6-alkyl dihydropyrazolopyrimidinone compounds as PDE2 inhibitors” (Merck Sharp & Dohme Corp., priority 2015, dated 2018)
Where two headings read alike, the source gives them in different places.

Biological target: T1, Rhesus PDE2A3 (Macaca mulatta, UniProt B3VTJ2)
T1 construct: made in house; host or cells: AD293 cells, transient transfection; supernatant of sonicated lysate
T1 sequence (B3VTJ2 1-941): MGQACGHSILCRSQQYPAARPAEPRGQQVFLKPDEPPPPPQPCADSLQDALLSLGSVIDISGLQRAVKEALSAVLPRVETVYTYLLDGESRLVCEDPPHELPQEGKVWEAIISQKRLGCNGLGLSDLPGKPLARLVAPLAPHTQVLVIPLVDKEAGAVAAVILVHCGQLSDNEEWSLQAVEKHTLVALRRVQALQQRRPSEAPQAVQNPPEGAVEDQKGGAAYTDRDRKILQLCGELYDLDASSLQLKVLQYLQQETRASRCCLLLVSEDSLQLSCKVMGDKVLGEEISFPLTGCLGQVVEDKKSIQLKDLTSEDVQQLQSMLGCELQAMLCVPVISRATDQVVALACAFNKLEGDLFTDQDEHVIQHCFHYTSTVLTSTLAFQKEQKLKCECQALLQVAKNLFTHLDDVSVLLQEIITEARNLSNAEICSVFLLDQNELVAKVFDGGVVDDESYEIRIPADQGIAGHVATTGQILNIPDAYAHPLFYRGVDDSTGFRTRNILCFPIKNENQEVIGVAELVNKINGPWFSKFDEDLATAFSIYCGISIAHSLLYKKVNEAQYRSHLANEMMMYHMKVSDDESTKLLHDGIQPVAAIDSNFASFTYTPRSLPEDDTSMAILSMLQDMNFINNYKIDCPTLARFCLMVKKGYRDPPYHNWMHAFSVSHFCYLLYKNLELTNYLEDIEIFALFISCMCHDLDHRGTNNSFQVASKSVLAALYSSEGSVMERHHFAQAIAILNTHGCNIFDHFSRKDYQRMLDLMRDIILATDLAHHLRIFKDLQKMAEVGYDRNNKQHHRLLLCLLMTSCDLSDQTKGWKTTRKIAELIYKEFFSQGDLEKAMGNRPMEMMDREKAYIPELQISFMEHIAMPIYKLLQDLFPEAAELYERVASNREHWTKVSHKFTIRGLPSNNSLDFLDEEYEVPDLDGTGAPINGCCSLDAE
Assay: PDE2 fluorescence polarization (IMAP FP) inhibition assay, rhesus PDE2A3
Format: biochemical, rhesus macaque
Method in brief: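 Enzyme source was the lysate supernatant of AD293 cells transiently expressing rhesus PDE2A3, diluted to give 20% conversion of 50 nM FAM-cAMP, with 1 µM cGMP as activator. Buffer was 10 mM Tris pH 7.2, 10 mM MgCl2, 1 mM DTT.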

[1] = Lab A, read-out: Rhesus PDE2 Ki (nM) Lab A
[2] = Lab B, read-out: Rhesus PDE2 Ki (nM) Lab B

| Ki [1] | Ki [2] | SMILES |
| --- | --- | --- |
| 62 nM | – | Cc1nn(C(C)c2ccc(C(F)(F)F)cc2)c2nc(-c3cnc4ccccc4n3)[nH]c(=O)c12 (centres unmarked) [Example 50, 3-Methyl-6-quinoxalin-2-yl-1-{1-[4-(trifluoromethyl)phenyl]ethyl}-1,5-dihydro-4H-pyrazolo[3,4-d]pyrimidin-4-one] |
| – | 0.3 nM | Cc1nc2c(c(CO)nn2[C@@H](c2ccc(C(C)(C)C)cc2)C(C)C)c(=O)[nH]1 [Example 160, (R)-1-(1-(4-tert-Butylphenyl)-2-methylpropyl)-3-(hydroxymethyl)-6-methyl-1H-pyrazolo[3,4-d]pyrimidin-4(5H)-one] |
| 0.39 nM | 0.53 nM | Cc1nc2c(c(CF)nn2C(C)c2ccc(OC(F)(F)F)c(F)c2)c(=O)[nH]1 (single isomer, unassigned) [Example 217, (S)- or (R)-1-(1-(3-Fluoro-4-(trifluoromethoxy)phenyl)ethyl)-3-(fluoromethyl)-6-methyl-1H-pyrazolo[3,4-d]pyrimidin-4(5H)-one] |
| – | 0.49 nM | Cc1nc2c(c(CF)nn2C(C)c2ccc(CC(F)(F)F)cc2)c(=O)[nH]1 (single isomer, unassigned) [Example 211, (S)- or (R)-3-(Fluoromethyl)-6-methyl-1-(1-(4-(2,2,2-trifluoroethyl)phenyl)ethyl)-1H-pyrazolo[3,4-d]pyrimidin-4(5H)-one] |
| – | 3.1 nM | Cc1nc2c(c(CF)nn2C2(c3ccc(C(F)(F)F)cc3)CCC2)c(=O)[nH]1 [Example 202, 3-(Fluoromethyl)-6-methyl-1-(1-(4-(trifluoromethyl)phenyl)cyclobutyl)-1H-pyrazolo[3,4-d]pyrimidin-4(5H)-one] |
| 18 nM | – | COc1cccc(-c2nc3c(c(C)nn3C(C)c3ccc(C(F)(F)F)cc3)c(=O)[nH]2)c1 (centres unmarked) [Example 47, 6-(3-Methoxyphenyl)-3-methyl-1-{1-[4-(trifluoromethyl)phenyl]ethyl}-1,5-dihydro-4H-pyrazolo[3,4-d]pyrimidin-4-one] |
| 32 nM | – | Cc1nc(-c2nc3c(c(C)nn3C(C)c3ccc(C(F)(F)F)cc3)c(=O)[nH]2)c(C)o1 (centres unmarked) [Example 54, 6-(2,5-Dimethyl-1,3-oxazol-4-yl)-3-methyl-1-{1-[4-(trifluoromethyl)phenyl]ethyl}-1,5-dihydro-4H-pyrazolo[3,4-d]pyrimidin-4-one] |
| 2.3 nM | 3.4 nM | Cc1nc2c(c(CF)nn2C(C)c2ccc(C(F)(F)F)c(F)c2)c(=O)[nH]1 (centres unmarked) [Example 230, 1-(1-(3-Fluoro-4-(trifluoromethyl)phenyl)ethyl)-3-(fluoromethyl)-6-methyl-1H-pyrazolo[3,4-d]pyrimidin-4(5H)-one] |
| 4.1 nM | 7.2 nM | Cc1nc2c(c(CO)nn2C(C)c2ccc(C(F)(F)F)c(F)c2)c(=O)[nH]1 (centres unmarked) [Example 1, 1-(1-(3-Fluoro-4-(trifluoromethyl)phenyl)ethyl)-3-(hydroxymethyl)-6-methyl-1H-pyrazolo[3,4-d]pyrimidin-4(5H)-one] |
| 6.7 nM | 7.9 nM | Cc1nc2c(c(C(F)F)nn2C(C)c2ccc(C(F)(F)F)cc2)c(=O)[nH]1 (centres unmarked) [Example 166, 3-(Difluoromethyl)-6-methyl-1-{1-[4-(trifluoromethyl)phenyl]ethyl}-1,5-dihydro-4H-pyrazolo[3,4-d]pyrimidin-4-one] |

Further lines, the compound ahead of its results:

| SMILES | Ki [1] | Ki [2] |
| --- | --- | --- |
| Cc1nc2c(c(C(O)C(F)(F)F)nn2C(C)c2ccc(C(F)(F)F)cc2)c(=O)[nH]1 (centres unmarked) [Example 327, 6-Methyl-3-(2,2,2-trifluoro-1-hydroxyethyl)-1-{1-[4-(trifluoromethyl)phenyl]ethyl}-1,5-dihydro-4H-pyrazolo[3,4-d]pyrimidin-4-one] | 93 nM | – |
| Cc1nc2c(c(CO)nn2C(c2ccc(OC(F)(F)F)c(F)c2)C(C)C)c(=O)[nH]1 (single isomer, unassigned) [Example 126, (R)- or (S)-1-(1-(3-Fluoro-4-(trifluoromethoxy)phenyl)-2-methylpropyl)-3-(hydroxyl-methyl)-6-methyl-1H-pyrazolo-[3,4-d]pyrimidin-4(5H)-one] | – | 6 nM |
| CCCc1nc2c(c(C)nn2C(C)c2ccc(C(F)(F)F)cc2)c(=O)[nH]1 (centres unmarked) [Example 41, 3-Methyl-6-propyl-1-{1-[4-(trifluoromethyl)phenyl]ethyl}-1,5-dihydro-4H-pyrazolo[3,4-d]pyrimidin-4-one] | 64 nM | – |
| Cc1nc2c(c(CO)nn2[C@H](c2ccc(C(C)(C)C)cc2)C(C)C)c(=O)[nH]1 [Example 159, (S)-1-(1-(4-tert-Butylphenyl)-2-methylpropyl)-3-(hydroxymethyl)-6-methyl-1H-pyrazolo[3,4-d]pyrimidin-4(5H)-one] | – | 2.8 nM |
| Cc1nc2c(c(CO)nn2Cc2ccc(C(F)(F)F)cc2)c(=O)[nH]1 [Example 8, 3-(Hydroxymethyl)-6-methyl-1-[4-(trifluoromethyl)benzyl]-1,5-dihydro-4H-pyrazolo[3,4-d]pyrimidin-4-one] | 192 nM | – |
| Cc1nc2c(c(CF)nn2C(c2ccc(C(F)(F)F)cc2)C2CC2)c(=O)[nH]1 (centres unmarked) [Example 231, 1-(cyclopropyl(4-(trifluoromethyl)phenyl)methyl)-3-(fluoromethyl)-6-methyl-1H-pyrazolo[3,4-d]pyrimidin-4(5H)-one] | 0.87 nM | 1.2 nM |
| Cc1nc2c(c(CO)nn2C(C)c2ccc(OC(F)(F)F)c(F)c2)c(=O)[nH]1 (single isomer, unassigned) [Example 11, (S)- or (R)-1-(1-(3-Fluoro-4-(trifluoromethoxy)phenyl)ethyl)-3-(hydroxymethyl)-6-methyl-1H-pyrazolo[3,4-d]pyrimidin-4(5H)-one] | 0.85 nM | 2 nM |
| Cc1nc2c(c(CF)nn2C(C)c2ccc(OC(F)(F)F)cc2)c(=O)[nH]1 (single isomer, unassigned) [Example 207, (S)- or (R)-3-(Fluoromethyl)-6-methyl-1-(1-(4-(trifluoromethoxy)phenyl)ethyl)-1H-pyrazolo[3,4-d]pyrimidin-4(5H)-one] | 0.46 nM | 0.84 nM |
| COCc1nc2c(c(CF)nn2C(C)c2ccc(C(F)(F)F)cc2)c(=O)[nH]1 (centres unmarked) [Example 205, 3-(Fluoromethyl)-6-(methoxymethyl)-1-{1-[4-(trifluoromethyl)phenyl]ethyl}-1,5-dihydro-4H-pyrazolo[3,4-d]pyrimidin-4-one] | – | 3.2 nM |
| Cc1nc2c(c(CO)nn2C(C)c2ccc(C3CC3)cc2)c(=O)[nH]1 (centres unmarked) [Example 3, 1-(1-(4-Cyclopropylphenl)ethyl)-3-(hydroxymethyl)-6-methyl-1H-pyrazolo[3,4-d]pyrimidin-4(5H)-one] | 1.8 nM | 5.6 nM |
| COc1ccc(Cc2nc3c(c(C(F)F)nn3C(C)c3ccc(C(F)(F)F)cc3)c(=O)[nH]2)cc1OC (single isomer, unassigned) [Example 197] | – | ~0.15 nM |
| Cc1nn(C(C)c2ccc(C(F)(F)F)cc2)c2nc(Cc3cccc(O)c3)[nH]c(=O)c12 (centres unmarked) [Example 30, 6-(3-Hydroxybenzyl)-3-methyl-1-(1-(4-(trifluoromethyl)phenyl)ethyl)-1H-pyrazolo[3,4-d]pyrimidin-4(5H)-one] | 6.6 nM | 11 nM |
| Cc1nc2c(c(CF)nn2C(c2ccc(C(F)(F)F)cc2)C(F)(F)F)c(=O)[nH]1 (centres unmarked) [Example 201, 3-(Fluoromethyl)-6-methyl-1-(2,2,2-trifluoro-1-(4-(trifluoromethyl)phenyl)-ethyl)-1H-pyrazolo[3,4-d]pyrimidin-4(5H)-one] | 1.4 nM | 4.1 nM |
| Cc1nc2c(c(CCl)nn2C(c2ccc(C(F)(F)F)cc2)C2CC2)c(=O)[nH]1 (centres unmarked) [Example 232, 3-(chloromethyl)-1-(cyclopropyl(4-(trifluoromethyl)phenyl)methyl)-6-methyl-1H-pyrazolo[3,4-d]pyrimidin-4(5H)-one] | 0.47 nM | 0.85 nM |
| Cc1nn(C(C)c2ccc(C(F)(F)F)cc2)c2nc(CF)[nH]c(=O)c12 (centres unmarked) [Example 51, 6-(Fluoromethyl)-3-methyl-1-{1-[4-(trifluoromethyl)phenyl]ethyl}-1,5-dihydro-4H-pyrazolo[3,4-d]pyrimidin-4-one] | 79 nM | – |
| COc1ccc(Cc2nc3c(c(C)nn3C(C)c3ccc(C(F)(F)F)cc3)c(=O)[nH]2)cc1OC (centres unmarked) [Example 44, 6-(3,4-Dimethoxybenzyl)-3-methyl-1-{1-[4-(trifluoromethyl)phenyl]ethyl}-1,5-dihydro-4H-pyrazolo[3,4-d]pyrimidin-4-one] | 4.8 nM | – |
| CCc1nc2c(c(C)nn2C(C)c2ccc(C(F)(F)F)cc2)c(=O)[nH]1 (centres unmarked) [Example 38, 6-Ethyl-3-methyl-1-{1-[4-(trifluoromethyl)phenyl]ethyl}-1,5-dihydro-4H-pyrazolo[3,4-d]pyrimidin-4-one] | 58 nM | – |
